# Laboratory results taken from patent publication US20140315981A1, “STRATEGIES FOR PREVENTION AND/OR TREATMENT OF DISEASES BASED ON CD40 SILENCING” (FUNDACIO INSTITUT D'INVESTIGACIO BIOMEDICA DE BELLVITGE …, priority 2011, published 2014).
# What was measured:
# Assay type in all cases: in vivo
# NZB/W F1 female mice [1] = assay: Proteinuria and renal function, murine lupus nephritis; conditions: vs. control, FIG. 3
# Experimental: (§1) Treatment was given from six to nine old months. Body weight was determined twice a month. Mice were placed in metabolic cages to collect 24-hour urine specimens before treatment, and again at six, seven and eight months. Blood was obtained from the tail vein at the same intervals. At the end of the follow-up, survivor animals were sacrificed and kidney processed for histological studies.
# NZB/W F1 female mice [2] = assay: Spleen weight and splenocyte B cell populations, murine lupus nephritis; conditions: FIG. 9
# NZB/W F1 female mice [3] = assay: Renal immunofluorescence of glomerular IgG and C3 deposition, murine lupus nephritis; conditions: FIG. 7
# Experimental: Renal immunofluorescence. For analysis of Ig and complement deposition, fluorescent staining of cryosections was used. Five-micrometer cryostat sections were fixed in acetone at −80° C. for 20 minutes, then blocked with 20% normal goat serum and directly stained with FITC-conjugated goat anti-mouse IgG at 1/300 (Sigma-Aldrich). To stain for complement, slides were then sequentially incubated in rat anti-mouse complement C3, at 1/50 (Cedarlane Laboratories Limited), followed by Alexa Fluor 546-conjugated goat anti-rat IgG at 1/1000 (Invitrogen, Molecular Probes). At least 30 glomeruli, visualized and photographed with an immunofluorescence microscope, from each animal were examined in a binded manner. A semiquantitative score of staining intensity and distribution from 0 to 4+ was given, where 0+ denotes no signal; 1+, minimal signal; 2+, low signal; 3+, moderate signal and 4+, strong signal intensity.
# NZB/W F1 female mice [4] = assay: Survival of NZB/W F1 mice with lupus nephritis under treatment; conditions: intraperitoneal treatment from six to nine months of age
# Experimental: Animals NZB/W F1 female mice (Charles River, Spain) were used. […] Mice were housed in a constant temperature room with a 12-hour dark/12-hour light cycle, and were given free access to water and a standard laboratory diet.
# as §1
# Data are expressed as mean+SE. Overall survival was analyzed by the Kaplan-Meier method. […] All P-values were two-tailed, and a P-value <0.05 was considered significant.
# NZB/W F1 female mice [5] = assay: Anti-DNA antibodies in serum by ELISA, murine lupus nephritis; conditions: FIG. 2
# Experimental: Urinary protein concentration was determined by a commercial kit based on the Ponceau method (BayerDiagnostics, Madrid, Spain). Serum creatinine levels (in milligrams per decilitre) were determined by Jaffés method on an autoanalyzer (Beckman Instruments, Palo Alto, Calif.) at the end of the follow-up. Anti-DNA antibodies levels of anti-DNA antibodies were measured before treatment, and subsequently each month and at sacrifice, using a commercially available ELISA kit (Alpha Diagnostic International, San Antonio, Tex., USA) according to manufacturer's instructions (serum diluted 1:100). This kit is based on a purified dsDNA coated microwell plate. Antibodies to dsDNA are directed against the phosphate-deoxyribose backbone of the DNA molecule. Anti-dsDNA from serum samples bind to extracted nuclear antigen immobilized on microtiter wells. Anti-mouse IgG-HRP conjugate is added, and the colour developed by chromogenic substrate addition. The enzymatic reaction (blue colour) is directly proportional to the amount of the anti-dsDNA in the sample. Kits contain positive and negative controls, and anti-DNA antibodies are estimated in a semi-quantitative way according to the optical density (o.d. 450).
compound,measurement,setting,value
"O=P1(N(CCCl)CCCl)NCCCO1 (centres unmarked) [CYP, cyclophosphamide]",proteinuria,NZB/W F1 female mice [1],significantly lower
same,proportion of B cells in splenocytes,NZB/W F1 female mice [2],markedly reduced
same,glomerular deposition of C3,NZB/W F1 female mice [3],more effective in reducing C3 deposition than costimulatory blockade
same,Cumulative survival analyzed by the Kaplan-Meier method,NZB/W F1 female mice [4],100%
same,anti-dsDNA titers,NZB/W F1 female mice [5],lower
